Values of other authors in US20220088150A1, “Octreotide Microsphere-Based Arterial Embolization for Treating Obesity” (Biovena Science, LLC, priority 2018, published 2022).

Legend:
[1] = test system: ghrelin secretion; conditions: continuous infusion, dose- and time-dependent
[2] = test system: insulin hypersecretion; conditions: six months, 5-15 μg/kg/day
[3] = subcutaneously 5-15 μg/kg/day, six months, compared with placebo

C[C@@H](O)[C@@H]1NC(=O)[C@H](CCCCN)NC(=O)[C@@H](Cc2c[nH]c3ccccc23)NC(=O)[C@H](Cc2ccccc2)NC(=O)[C@@H](NC(=O)[C@H](N)Cc2ccccc2)CSSC[C@@H](C(=O)N[C@H](CO)[C@@H](C)O)NC1=O [octreotide, D-phenylalanyl-L-cysteinyl-L-phenylalanyl-D-tryptophyl-L-lysyl-L-threonyl-L-cysteinyl-L-threoninol (2→7)-disulfide]
ghrelin secretion [1]: suppresses ghrelin secretion
calorie intake decrease [2]: approximately 700 kcal/day
BMI ([2]; vs pre-study observation period, p=0.0001): BMI decrease
weight loss ([2]; vs six-month pre-study observation period, p=0.04): greater weight loss
splanchnic blood flow (healthy human subjects): reduces splanchnic blood flow
gastric emptying (human, in vivo): delays gastric emptying
weight and BMI [3]: effective in stabilizing weight and BMI
